From patent US12692234B2, “Rock inhibitors and uses thereof” (Alcon Inc., priority 2024, dated 2026)

Tests used:
[1] = target: ROCK2 (Homo sapiens, UniProt O75116); conditions: read-out: Ki (nM) ROCK2
[2] = target: ROCK1 (Homo sapiens, UniProt Q13464); test: Kinase inhibition assay (KINASE-GLO), ROCK1; format: biochemical
Sequence of ROCK1 (Q13464 whole entry): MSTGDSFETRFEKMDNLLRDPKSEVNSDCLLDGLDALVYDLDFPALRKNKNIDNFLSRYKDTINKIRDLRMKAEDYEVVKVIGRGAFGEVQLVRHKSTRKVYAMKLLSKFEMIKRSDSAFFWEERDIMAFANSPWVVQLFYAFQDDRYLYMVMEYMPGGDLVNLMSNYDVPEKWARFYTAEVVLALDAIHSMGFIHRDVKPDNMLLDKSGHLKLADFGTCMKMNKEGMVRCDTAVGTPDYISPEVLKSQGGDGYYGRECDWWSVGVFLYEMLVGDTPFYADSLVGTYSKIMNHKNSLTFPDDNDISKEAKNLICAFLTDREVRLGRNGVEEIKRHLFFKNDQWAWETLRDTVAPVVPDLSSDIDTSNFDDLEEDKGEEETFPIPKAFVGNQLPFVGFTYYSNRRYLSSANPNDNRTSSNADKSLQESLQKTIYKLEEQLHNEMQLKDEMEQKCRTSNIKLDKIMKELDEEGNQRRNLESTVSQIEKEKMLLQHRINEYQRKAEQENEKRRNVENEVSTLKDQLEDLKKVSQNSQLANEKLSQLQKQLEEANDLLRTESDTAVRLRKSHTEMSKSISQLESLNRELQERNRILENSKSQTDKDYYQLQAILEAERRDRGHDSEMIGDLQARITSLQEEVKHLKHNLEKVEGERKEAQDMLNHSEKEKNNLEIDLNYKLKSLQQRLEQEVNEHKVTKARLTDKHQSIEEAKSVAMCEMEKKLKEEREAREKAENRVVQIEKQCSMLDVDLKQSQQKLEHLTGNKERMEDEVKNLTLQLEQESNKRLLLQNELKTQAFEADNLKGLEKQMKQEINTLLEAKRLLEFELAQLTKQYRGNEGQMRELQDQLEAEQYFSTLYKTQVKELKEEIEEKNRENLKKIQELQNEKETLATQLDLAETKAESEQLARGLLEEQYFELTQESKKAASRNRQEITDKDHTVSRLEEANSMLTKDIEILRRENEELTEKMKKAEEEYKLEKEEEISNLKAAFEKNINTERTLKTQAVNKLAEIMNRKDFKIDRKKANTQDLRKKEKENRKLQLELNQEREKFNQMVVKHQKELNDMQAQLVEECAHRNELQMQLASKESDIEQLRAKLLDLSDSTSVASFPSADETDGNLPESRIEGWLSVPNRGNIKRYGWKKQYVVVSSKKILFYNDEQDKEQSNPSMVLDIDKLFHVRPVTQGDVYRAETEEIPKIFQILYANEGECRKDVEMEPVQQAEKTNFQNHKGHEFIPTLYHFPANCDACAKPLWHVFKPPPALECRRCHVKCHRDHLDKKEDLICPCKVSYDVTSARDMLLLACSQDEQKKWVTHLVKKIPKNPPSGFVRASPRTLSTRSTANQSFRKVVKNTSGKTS

Sequence of ROCK2 (O75116 whole entry): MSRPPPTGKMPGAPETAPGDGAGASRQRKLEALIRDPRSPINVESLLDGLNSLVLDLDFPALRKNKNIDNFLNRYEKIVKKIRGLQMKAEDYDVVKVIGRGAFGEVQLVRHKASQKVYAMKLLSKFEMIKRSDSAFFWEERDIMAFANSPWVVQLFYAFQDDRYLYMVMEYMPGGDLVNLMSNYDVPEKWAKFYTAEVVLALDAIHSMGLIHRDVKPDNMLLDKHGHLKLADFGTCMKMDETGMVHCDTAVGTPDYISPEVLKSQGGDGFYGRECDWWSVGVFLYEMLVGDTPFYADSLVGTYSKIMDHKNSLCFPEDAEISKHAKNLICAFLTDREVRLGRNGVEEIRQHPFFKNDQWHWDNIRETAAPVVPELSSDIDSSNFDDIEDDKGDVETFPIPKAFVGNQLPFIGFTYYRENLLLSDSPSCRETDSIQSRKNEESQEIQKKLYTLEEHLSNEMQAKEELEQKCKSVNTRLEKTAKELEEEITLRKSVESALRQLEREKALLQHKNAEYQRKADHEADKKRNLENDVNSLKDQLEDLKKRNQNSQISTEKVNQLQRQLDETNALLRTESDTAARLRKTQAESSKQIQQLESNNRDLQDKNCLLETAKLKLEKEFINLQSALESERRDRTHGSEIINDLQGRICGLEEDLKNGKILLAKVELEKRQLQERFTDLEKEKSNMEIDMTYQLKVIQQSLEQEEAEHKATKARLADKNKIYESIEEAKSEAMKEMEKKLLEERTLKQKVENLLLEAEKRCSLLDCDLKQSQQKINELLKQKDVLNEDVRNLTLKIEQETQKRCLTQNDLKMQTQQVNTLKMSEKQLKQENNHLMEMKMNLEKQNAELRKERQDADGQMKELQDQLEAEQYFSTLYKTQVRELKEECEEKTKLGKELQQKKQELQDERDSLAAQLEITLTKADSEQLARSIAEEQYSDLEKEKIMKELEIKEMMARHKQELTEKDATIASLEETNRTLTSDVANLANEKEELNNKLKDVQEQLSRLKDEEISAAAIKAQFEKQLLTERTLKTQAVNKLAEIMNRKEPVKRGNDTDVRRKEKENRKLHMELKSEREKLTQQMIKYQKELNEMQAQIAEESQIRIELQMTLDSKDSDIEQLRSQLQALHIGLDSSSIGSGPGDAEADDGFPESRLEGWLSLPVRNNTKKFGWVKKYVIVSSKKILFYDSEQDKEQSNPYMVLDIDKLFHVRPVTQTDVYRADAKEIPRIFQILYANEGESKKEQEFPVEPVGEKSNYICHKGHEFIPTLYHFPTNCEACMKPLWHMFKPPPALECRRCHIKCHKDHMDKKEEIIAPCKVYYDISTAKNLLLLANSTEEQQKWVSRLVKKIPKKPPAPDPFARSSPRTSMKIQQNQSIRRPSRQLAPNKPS

NC[C@@H](C(=O)Nc1ccc2cnccc2c1)c1ccc(CO)cc1
Ki [1]: 0.2 nM
Ki [2]: 0.2 nM
